For test [1], the system named is CD8-1 T cell line (CD1c-restricted αβ). Nature of the test: CD8-1 T cell line response. The test is classed as cell-based, human.
The subject of test [2] is LDN5 T cell line (CD1b-restricted). The test is classed as cell-based, human.
Test [3] deals with CD1b transfected C1R lymphoblastoid target cells. Nature of the test: LDN5 cytolysis assay, CD1b transfected targets. The test is classed as cell-based, human. The settings on record: E:T 25:1; targets cultured with antigen (0.5 mg/ml purified glycolipid; 5 μg/ml synthetic GMM). An excerpt:
(§1) There was no response in the absence of antigen.
(§2) Similarly treated mock, CD1a or CD1c transfected cells were not lysed (FIG. 2B). The Na adduct of the fully synthetic GMM containing C32 mycolic acid was detected by ESI-MS analysis to be a single ion peak at m/z 681.6 (FIG. 2C). This synthetic GMM antigen lacks long chain length (compared with C80 mycolic acids of mycobacteria), cyclopropanation, double bonds and R groups, ruling out all of these natural chemical variations of the mycolic acid moiety as necessary antigenic determinants. The discovery of a synthetic CD1-restricted antigen with a simple and well defined structure allowed the systematic study of individual molecular features of the antigen that determined the specificity of the T cell response.
(§3) LDN5 was derived from the same human leprosy skin lesion that gave rise to the previously described LAM reactive T cell line LDN4 (P. A. Sieling, et al. (1995) Science 269:227). Cultures were stimulated initially with autologous GM-CSF and IL-4 treated CD1^+ monocytes and M. leprae sonicate. After establishment of LDN5, cultures were maintained in IL-2 supplemented medium and periodically stimulated with allogenic CD1^+ APCs and M. phlei sonicate (X/1000) containing GMM. […] T cell culture methods, proliferation assays and cytolysis assays were carried out according to the methods described in E. M. Beckman, et al. (1996) J. Immunol. […]

Test [4] concerns mock, CD1a or CD1c transfected C1R cells. Kind of test: LDN5 cytolysis assay, control transfectants. The class given is cell-based, human. Conditions: E:T 25:1; similarly treated with antigen.
From the text: as §1, §2, §3

For test [5], the system named is DN1 T cell line (CD1b-restricted, specific for free mycolic acid). Kind of test: DN1 T cell line response. The test is classed as cell-based, human. An excerpt:
The role of the carbohydrate moiety of the glycolipid in T cell recognition was separately evaluated.
LDN5 was derived from the same human leprosy skin lesion that gave rise to the previously described LAM reactive T cell line LDN4 (P. A. Sieling, et al. (1995) Science 269:227). Cultures were stimulated initially with autologous GM-CSF and IL-4 treated CD1^+ monocytes and M. leprae sonicate. After establishment of LDN5, cultures were maintained in IL-2 supplemented medium and periodically stimulated with allogenic CD1^+ APCs and M. phlei sonicate (X/1000) containing GMM. […] T cell culture methods, proliferation assays and cytolysis assays were carried out according to the methods described in E. M. Beckman, et al. (1996) J. Immunol. 157:2795. All bioassays were done in triplicate and reported as mean +/−standard deviation.

In a further test the target is CD1b (Homo sapiens, UniProt P29016). Kind of test: Binding of glycolipid to CD1b. An excerpt: Thus, CD1b binds to both natural and synthetic GMM but not to an analog that has only one long alkyl chain instead of two short alkyl chains.
The next test concerns APCs. Kind of test: Uptake and processing of CD1b-presented antigens by APCs. The class given is cell-based. An excerpt:
The uptake and processing pathway for CD1b-presented antigens was also defined. Several steps in the presentation of two related classes of CD1b-presented antigens, free and glycosylated mycolates, were examined. […] Thus, larger lipids, such as trehalose dimycolate cannot be broken down into GMM within cells. Given that the hydrophobic groove can accommodate approximately 32 CH2 units when measured in crystalline form, it is likely that the CD1 protein can open to encompass larger alkyl chains or that the chains can protrude from the groove.

The subject of test [6] is 14 other T cell lines including SP-F3 and DN6.
Test [7] concerns CD1c-restricted T cell lines. Kind of test: Recognition by other CD1c-restricted T cell lines from different donors. The class given is cell-based, human. The settings on record: lines derived from different donors. An excerpt:
Based on a survey of known mycobacterial phospholipids, the leading candidate structure for this antigen was that of a glycosyl phosphopolyprenol (GPP). See, Besra, G. S., et al. (1994) Proc. Natl. Acad. Sci. USA 91:12735-12739. The fragmentation pattern was consistent with the identification of the antigenic M. avium as a GPP, presuming that the lipid of m/z 420 was the hexaprenyl component of a fully saturated hexose phosphohexaprenol. To assess this, the ability of the T cell line CD8-1 to recognize purified mycobacterial GPPs was tested. The structure of Myc-PL, a mannosyl phosphopolyprenol esterified to a mycolic acid, had been determined in detail. Besra, G. S., et al. (1994) supra. Pure myc-PL was cleaved with strong base to yield free mycolate and mannosyl phosphoheptaprenol (MPP). Besra, G. S., et al. (1994) supra. […] Rush, J. S., et al.(1993) J. Biol. Chem. 268:13110-13117. […] Thus, these studies established that CD1c-restricted T cells specifically recognized GPPs from four different sources, including both natural and synthetic analogs of this structure.
All three CD1-restricted lines preferentially recognized the α-saturated MPDs typical of eukaryotes more potently than the α-unsaturated GPPs typical of prokaryotes. Krag, S. S. (1998) Biochem. Biophys. Res. Comm. 243:1-5. […]

In test [8] the test system is CD1a, CD1b and MHC class I restricted T cell lines. Kind of test: Stimulation of CD1a, CD1b and MHC class I restricted T cell lines (mitogenicity control). The class given is cell-based.
Where [9] appears, read: cytokine activated macrophages / CD1+ APCs.

“Also recorded” adds a separate entry of the source. Where two headings read alike, the source gives them in different places.

Chain of CD1b (P61769 21-119): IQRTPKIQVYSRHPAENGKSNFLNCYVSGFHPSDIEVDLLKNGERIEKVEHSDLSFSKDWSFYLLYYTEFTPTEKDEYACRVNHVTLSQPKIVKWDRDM
Chain of CD1b (P29016 18-303): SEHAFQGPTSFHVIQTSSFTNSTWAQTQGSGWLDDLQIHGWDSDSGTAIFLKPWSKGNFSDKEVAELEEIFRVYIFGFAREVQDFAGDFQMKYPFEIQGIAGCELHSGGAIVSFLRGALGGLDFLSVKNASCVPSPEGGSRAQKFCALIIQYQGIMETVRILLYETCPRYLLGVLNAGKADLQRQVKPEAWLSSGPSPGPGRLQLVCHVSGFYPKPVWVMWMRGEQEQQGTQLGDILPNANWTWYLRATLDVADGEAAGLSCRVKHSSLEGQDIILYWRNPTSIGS

For `CC(C)=CCCC(C)=CCCC(C)=CCCC(C)=CCCC(C)=CCCC(C)=CCCC(C)=CCOP(=O)(O)O[C@@H]1O[C@H](CO)[C@@H](O)[C@H](O)[C@@H]1O` (relative stereo) [semi-synthetic MPP, β-D-mannopyranosyl-1-monophosphoryl-(poly-cis, di-trans, α-unsaturated) heptaprenol], the “CD8-1 response to antigen” value in test [1] was “responded significantly”.

With `CCCCCCCCCCCCCC(O)CC(=O)OC[C@@H](O)[C@@H](O)[C@H](O)[C@@H](O)C=O` (stereo partly drawn) [glucose 6-O-3-hydroxypalmitate], the “LDN5 proliferative response to antigen” value in test [2] (setting [9]) was “did not respond”.

Regarding mannose monomycolate, the “LDN5 proliferative response to antigen” value in test [2] is “responded very weakly or not at all”.

Regarding mannosyl phosphoheptaprenol [MPP], the “CD8-1 response to antigen” value in [1] is listed as “did respond to the pure MPP”.

On to “α,α trehalose dimycolate [purified cord factors from M. phlei, reference compound]”, for which the “LDN5 proliferative response to antigen” value in test [2] (setting [9]) is given as “not antigenic for LDN5”.

As for galactose monomycolate, in test [2], the “LDN5 proliferative response to antigen” value is “responded very weakly or not at all”.

As to `CC(C)=CCCC(C)=CCCC(C)=CCCC(C)=CCCC(C)=CCCC(C)=CCCC(C)=CCCC(C)=CCCC(C)=CCCC(C)=CCCC(C)=CCCC(C)=CCCC(C)=CCCC(C)=CCCC(C)=CCCC(C)=CCCC(C)=CCCC(C)=CCCC(C)CCOP(=O)(O)O[C@@H]1O[C@H](CO)[C@@H](O)[C@H](O)[C@@H]1O` (relative stereo) [β-D-mannopyranosyl-1-monophosphoryl-(poly-cis, di-trans, α-saturated) nondecaprenol], in test [1], the “CD8-1 response to antigen” value is recorded as “responded significantly”.

Take glucose monomycolate [GMM]: the “LDN5 proliferative response to antigen” value in test [2] is on record as “stimulated LDN5; also recorded: proliferated at similar doses”. In addition, the “lysis of CD1b transfected C1R target cells by LDN5” value in test [3] is “lysed CD1b transfected C1R lymphoblastoid target cells”. For the same molecule, the “lysis of mock, CD1a or CD1c transfectants by LDN5” value in test [4] is reported as “not similarly treated mock, CD1a or CD1c transfectants”. Also, the “DN1 response to antigen” value in test [5] is “not to GMM”. Besides, the “binding to CD1b at pH 4.0” value on CD1b (pH 4.0) was “occurring at pH 4.0”. Besides, the “binding to CD1b at pH 7.0” value at CD1b (pH 7.0) is “not at pH 7.0”. Moreover, in the test on APCs, the “T cell recognition after treating APCs with fixing or endosome pH neutralizing agents” value is recorded as “blocked by agents that fix APC membranes or neutralized the pH of endosomes” and the “rate of uptake by APCs” value is listed as “taken up by APCs at the same rate”. In addition, the “proliferative response of other T cell lines” value in test [6] is recorded as “not 14 other T cell lines tested”.

In the case of mannosyl phosphodolichol [MPD], in test [1], the “CD8-1 response to antigen” value is recorded as “recognized the 2,3 dihydro analog, mannosyl phosphodolichol (MPD), at much lower concentration”. Moreover, in test [7], the “recognition by two other CD1c-restricted T cell lines” value is “recognized MPD”. Moreover, the “stimulation of CD1a, CD1b and MHC class I restricted T cell lines” value in test [8] is listed as “did not stimulate”.

As to `CCCCCCCCCCCCCCCCCCCCCCCCCCCCCC(=O)OC[C@H]1OC(O)[C@H](O)[C@@H](O)[C@@H]1O` (stereo partly drawn) [G6T, Glucose-6-o-triacontanoate], at CD1b (pH not given), the “binding to CD1b” value was “did not bind to CD1b”.

Consider “trehalose dimycolate [TDM, reference compound]”, for which, in the test on APCs, the “cleavage by APCs to antigenic free mycolates or GMM” value is given as “unable to cleave”.

Source of the values: patent publication US20030206914A1, “Synthetic antigens for CD1-restricted immune responses” (priority 1997, published 2003).
